# Reference: PubChem BioAssay (NCI)
#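 Following 48 hours of exposure in 96-well plates, responses at five concentrations were used to interpolate endpoints linearly. TGI: total growth inhibition.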
# Columns and labels:
# Test in all cases: NCI anticancer screen, dose series, 48 h
# [1] = test system: SK-MEL-5 melanoma
# [2] = test system: MALME-3M melanoma
# [3] = test system: K-562 leukemia
# [4] = test system: BT-549 breast
# [5] = test system: A498 renal
# [6] = test system: OVCAR-8 ovarian
# [7] = test system: SNB-19 CNS
# [8] = test system: RPMI-8226 leukemia
# [9] = test system: IGROV1 ovarian
# [10] = test system: HT29 colon
# [11] = test system: MDA-MB-435
# [12] = test system: HCC-2998 colon
# [13] = test system: CCRF-CEM leukemia
SMILES,TGI [1],TGI [2],TGI [3],TGI [4],TGI [5],TGI [6],TGI [7],TGI [8],TGI [9],TGI [10],TGI [11],TGI [12],TGI [13]
CC(C)CC1c2[nH]c3ccccc3c2C[C@H]2C(=O)NC(CCC(=O)OC(C)(C)C)C(=O)N12 (some centres not stated),61.7 µM,62.2 µM,> 100 µM,> 100 µM,> 100 µM,> 100 µM,> 100 µM,67.2 µM,> 100 µM,43.1 µM,97.4 µM,–,–
CC1OC(O[C@H]2CC[C@]3(C)[C@H]4CC=C5[C@@H]6[C@@H](C)[C@H](C)CC[C@]6(C(=O)O)CC[C@@]5(C(=O)O)[C@]4(C)CC[C@H]3C2(C)C)C(O)C(O)C1O (some centres not stated),> 75 µM,–,> 75 µM,> 75 µM,> 75 µM,> 75 µM,> 75 µM,–,–,–,> 75 µM,> 75 µM,> 75 µM
COc1cc(-c2coc3c(OC)c(OC4OC(CO)C(O)C(O)C4O)c(OC)cc3c2=O)cc(OC)c1C (configuration not stated),27.8 µM,29.7 µM,> 70.4 µM,16.1 µM,–,25.3 µM,28.6 µM,> 100 µM,30.9 µM,35.1 µM,17.9 µM,18.6 µM,> 41.7 µM
CN(C)CCO/N=C1/C=C2CC[C@H]3[C@@H]4CC[C@H](O)[C@@]4(C)CC[C@@H]3[C@@]2(C)CC1,34.3 µM,–,56.8 µM,8.27 µM,33.7 µM,45.5 µM,> 100 µM,> 74.9 µM,25.2 µM,5.53 µM,12.4 µM,28.1 µM,> 21.6 µM
Cc1c2c(n(CCc3ccccc3)c1C)NN=C(C#N)S2(=O)=O,> 100 µM,> 100 µM,> 100 µM,> 100 µM,–,> 100 µM,> 100 µM,> 100 µM,> 100 µM,> 100 µM,> 100 µM,> 100 µM,–
COC1OC(CO)C(O)C(OC(=O)c2cc(O)c(O)c(O)c2)C1OC(=O)c1cc(O)c(O)c(O)c1 (configuration not stated),> 100 µM,> 100 µM,> 100 µM,> 100 µM,–,> 100 µM,> 100 µM,> 100 µM,> 100 µM,> 100 µM,> 100 µM,–,> 100 µM
CC1=C(OC2OC(CO)C(O)C(O)C2O)C(=O)C[C@H]2C1=CC[C@@H]1[C@@]2(C)C(=O)C[C@]2(C)[C@@H]([C@@](C)(O)C(=O)CCC(C)(C)O)[C@H](O)C[C@@]12C (some centres not stated),> 100 µM,> 100 µM,> 100 µM,> 100 µM,> 100 µM,> 100 µM,> 100 µM,–,> 100 µM,> 100 µM,> 100 µM,> 100 µM,> 100 µM
CC1C[C@]2(C)C(=S)Nc3ccccc3[C@@H]2Nc2ccccc21 (some centres not stated),31.7 µM,30.8 µM,> 100 µM,–,36.3 µM,29.5 µM,57.4 µM,> 100 µM,40.3 µM,26.6 µM,31.2 µM,40.6 µM,54.4 µM
CC1N(C)C(=O)OC12CCN(CCCC(=O)c1ccc(F)cc1)CC2 (configuration not stated),> 100 µM,> 100 µM,> 100 µM,> 100 µM,> 100 µM,> 100 µM,> 100 µM,> 100 µM,> 100 µM,> 100 µM,> 100 µM,–,> 100 µM
CCOC(=O)c1c(NC(=O)Nc2ccccc2)c(C(N)=O)c2n1CCCCC2,> 100 µM,–,> 100 µM,> 100 µM,> 100 µM,> 100 µM,> 100 µM,> 100 µM,> 100 µM,> 100 µM,> 100 µM,> 100 µM,> 100 µM
O=C1CCCc2cc3c(cc21)CCC3C(=O)O (configuration not stated),> 100 µM,> 100 µM,> 100 µM,> 100 µM,–,> 100 µM,> 100 µM,> 100 µM,> 100 µM,> 100 µM,–,> 100 µM,> 100 µM
O=C(O)CN1CCN(CC(=O)O)CCN(CC(=O)O)CCN(CC(=O)O)CC1,> 100 µM,–,> 100 µM,> 100 µM,> 100 µM,> 100 µM,> 100 µM,> 100 µM,> 100 µM,> 100 µM,> 100 µM,> 100 µM,> 100 µM
O=C(Cc1ccccc1)c1ccc2[nH]c(=O)oc2c1,–,–,> 100 µM,> 100 µM,> 100 µM,> 100 µM,–,64.4 µM,> 100 µM,> 100 µM,> 100 µM,–,> 100 µM
S=C(Nc1cccc(Cl)c1)Nc1ccccn1,> 100 µM,> 100 µM,> 100 µM,> 100 µM,–,> 100 µM,> 100 µM,> 100 µM,> 100 µM,> 100 µM,> 100 µM,–,> 100 µM
O=c1cc(-c2cccc(OC(F)(F)F)c2)[nH]c2cc3c(cc12)OCO3,0.336 µM,> 100 µM,–,33.5 µM,7.75 µM,> 52.2 µM,> 100 µM,0.271 µM,16.3 µM,26.6 µM,0.0367 µM,0.157 µM,–
O=C(CCCn1ccnc1[N+](=O)[O-])NCCn1ccnc1,> 100 µM,> 100 µM,> 100 µM,> 100 µM,> 100 µM,> 100 µM,> 100 µM,–,> 100 µM,> 100 µM,> 100 µM,> 100 µM,> 100 µM
CCCCCCCCCCCCCCCCP(=O)(O)OP(=O)(O)OCC1OC(n2cnc3c(N)ncnc32)C(O)C1O (configuration not stated),> 100 µM,44.8 µM,> 100 µM,> 100 µM,–,43.9 µM,42 µM,–,35.9 µM,43.8 µM,96.7 µM,44.8 µM,97.4 µM
O=[N+]([O-])C(=C(N1CCOCC1)N1CCOCC1)/C(Cl)=C(\Cl)[N+](=O)[O-],3.04 µM,3.24 µM,> 100 µM,13.3 µM,36.1 µM,–,> 65.6 µM,–,2.78 µM,8.26 µM,23.1 µM,39.6 µM,96.8 µM

SMILES,TGI [1],TGI [2],TGI [3],TGI [4],TGI [5],TGI [6],TGI [7],TGI [8],TGI [9],TGI [10],TGI [11],TGI [12],TGI [13]
Cc1cc2c(s1)C(=O)c1sccc1C2=O,0.301 µM,0.311 µM,–,–,3.17 µM,1.56 µM,3.04 µM,> 25.5 µM,3.05 µM,4.3 µM,0.318 µM,3.15 µM,> 100 µM
O=C1N=C(c2ccccc2)O/C1=C\c1ccccc1,> 100 µM,> 100 µM,–,> 100 µM,> 100 µM,> 100 µM,> 100 µM,> 100 µM,> 100 µM,> 100 µM,> 100 µM,> 100 µM,–
CCCCCc1c2nc(c(CCCCC)c3ccc([nH]3)c(CCCCC)c3ccc([nH]3)c(CCCCC)c3nc1C=C3)C=C2,> 100 µM,> 100 µM,> 100 µM,> 100 µM,–,> 100 µM,> 100 µM,> 100 µM,> 100 µM,> 100 µM,> 100 µM,> 100 µM,> 100 µM
C=C(C)[C@@H]1CC[C@]2(C(=O)O)CC[C@]3(C)[C@H](CC[C@@H]4[C@@]5(C)CC[C@H](C(=O)/C=C/c6ccc(O)cc6)C(C)(C)[C@@H]5CC[C@]43C)[C@@H]12,10.4 µM,70.1 µM,> 100 µM,38.5 µM,26.5 µM,53.9 µM,27.7 µM,–,28.3 µM,45.4 µM,24.4 µM,11.4 µM,23.6 µM
CC(=O)Nc1ccc2c(C)c3c4ccccc4n(C)c3nc2n1,21.9 µM,–,–,84.8 µM,46.2 µM,> 100 µM,> 100 µM,–,> 100 µM,> 100 µM,45.7 µM,30.9 µM,80.5 µM
CN(C)CCNc1ccc2c(=O)n(CCN(C)C)c(=O)n3c4ccc(N)cc4c(=O)c1c23,1.37 µM,0.352 µM,0.0358 µM,1.87 µM,2.37 µM,0.722 µM,0.788 µM,–,0.534 µM,0.46 µM,0.273 µM,0.809 µM,0.16 µM
CCCNC(=S)/N=C\c1c(O)c2ccccc2oc1=O,> 100 µM,> 100 µM,–,> 100 µM,> 100 µM,> 100 µM,> 100 µM,–,> 100 µM,> 100 µM,> 100 µM,> 100 µM,> 100 µM
O=C1CCCC2=C1CC1=C(CCCC1=O)N2c1cccc2ccccc12,> 100 µM,–,> 100 µM,> 100 µM,> 100 µM,> 100 µM,> 100 µM,> 100 µM,> 100 µM,> 100 µM,–,> 100 µM,> 100 µM
CC(=O)c1ccc2c(c1)oc(=O)n2CCN1CCCCC1,> 100 µM,> 100 µM,> 100 µM,> 100 µM,> 100 µM,> 100 µM,> 100 µM,> 100 µM,> 100 µM,> 100 µM,> 100 µM,–,> 100 µM
CC1(O)/C(=N/O)CC2CC1C2(C)C (configuration not stated),> 100 µM,> 100 µM,> 100 µM,> 100 µM,–,> 100 µM,> 100 µM,> 100 µM,> 100 µM,> 100 µM,> 100 µM,> 100 µM,> 100 µM
CCC(=O)COc1ccc(NC(NC(=O)C(C(F)(F)F)C(F)(F)F)(C(F)(F)F)C(F)(F)F)cc1,> 100 µM,77.7 µM,–,–,> 100 µM,62.8 µM,> 100 µM,52.8 µM,44.9 µM,70.3 µM,> 100 µM,> 100 µM,61.8 µM
O=S1(=O)CCN(Cc2ccccc2)/C1=N\S(=O)(=O)c1ccc(Cl)cc1,41.9 µM,–,> 100 µM,31.1 µM,73.5 µM,32.9 µM,> 100 µM,79 µM,32.5 µM,32.6 µM,36.2 µM,34.5 µM,85.5 µM
COC12C=CC(CC1)C1C(=O)c3c(C)c(C)n(C)c3C(=O)C12 (configuration not stated),> 100 µM,> 100 µM,> 100 µM,> 100 µM,> 100 µM,> 100 µM,> 100 µM,> 100 µM,> 100 µM,> 100 µM,> 100 µM,–,> 100 µM
C=C[C@H]1CN2CCc3c([nH]c4c([C@H]5CCCN5C)c(O)ccc34)[C@@H]2C[C@@H]1C[C@H]1c2[nH]c3ccccc3c2CCN1C,–,3.19 µM,–,3.72 µM,–,2.91 µM,3.57 µM,–,3.04 µM,2.75 µM,2.83 µM,1.21 µM,2.11 µM
C[Si](C)(C)OC1c2[nH]c3ccccc3c2CN2C(=O)CCC12 (configuration not stated),> 100 µM,–,> 100 µM,> 100 µM,> 100 µM,> 100 µM,> 100 µM,> 100 µM,> 100 µM,> 100 µM,> 100 µM,> 100 µM,–
Cc1ccccc1N(C)S(=O)(=O)c1ccccc1[N+](=O)[O-],30.7 µM,> 100 µM,> 100 µM,> 100 µM,–,> 100 µM,> 100 µM,> 100 µM,> 100 µM,> 100 µM,> 100 µM,> 100 µM,> 100 µM
Cc1ccc(S(=O)(=O)NNC(=S)Nc2cccc3ccccc23)cc1,33.1 µM,> 100 µM,> 100 µM,–,99.5 µM,> 100 µM,> 100 µM,> 100 µM,> 100 µM,> 100 µM,> 100 µM,> 100 µM,> 100 µM
C/C=C(/C)C(=O)O[C@H]1C(C)=C[C@]23C(=O)[C@@H](C=C(COC(C)=O)[C@@H](O)[C@]12O)[C@H]1[C@@H](C[C@H]3C)[C@@]1(C)OC(=O)/C(C)=C\C,3.84 µM,3.89 µM,6.81 µM,5.73 µM,6.07 µM,11.3 µM,5.92 µM,–,10.2 µM,1.49 µM,6.6 µM,5.59 µM,5.21 µM
